{"source": "patent US11203594B2", "about": "“Anti-proliferative agents for treating PAH” (Pfizer Inc., priority 2019, dated 2021)", "type_in_all_cases": "biochemical", "key": {"CDK6/Cyclin D1": {"target": "CDK6/Cyclin D1 (Homo sapiens (Human), UniProt Q00534)", "sequence (Q00534 whole entry)": "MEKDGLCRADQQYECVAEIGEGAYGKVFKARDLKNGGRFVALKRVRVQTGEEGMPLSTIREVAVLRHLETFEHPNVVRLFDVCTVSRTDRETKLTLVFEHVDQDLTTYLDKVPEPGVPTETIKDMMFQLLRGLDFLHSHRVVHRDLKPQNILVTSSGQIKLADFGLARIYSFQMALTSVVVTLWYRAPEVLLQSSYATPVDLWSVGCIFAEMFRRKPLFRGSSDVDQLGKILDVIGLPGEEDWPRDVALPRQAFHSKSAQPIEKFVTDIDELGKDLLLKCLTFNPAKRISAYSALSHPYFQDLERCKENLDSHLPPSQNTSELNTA", "sequence (P24385 whole entry partner)": "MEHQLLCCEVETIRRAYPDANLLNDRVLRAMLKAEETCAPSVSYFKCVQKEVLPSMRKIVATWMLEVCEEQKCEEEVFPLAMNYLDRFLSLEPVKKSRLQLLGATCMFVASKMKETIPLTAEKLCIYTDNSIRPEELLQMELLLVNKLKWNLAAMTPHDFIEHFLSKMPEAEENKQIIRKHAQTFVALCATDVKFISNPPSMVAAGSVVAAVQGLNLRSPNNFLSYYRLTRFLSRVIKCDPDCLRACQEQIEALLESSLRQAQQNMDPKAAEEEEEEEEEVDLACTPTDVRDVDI", "experiment": "CDK6/Cyclin D1 Mobility Shift Assay (MSA), Ki by Morrison equation", "conditions": "geometric mean, tested in CDK6/D1 Ki assay using MSA", "text": "CDK6/Cyclin D1 Mobility Shift Assay (MSA)\nThe purpose of the CDK6/Cyclin D1 assay is to evaluate the inhibition (% inhibition, Kiapp and Ki values) in the presence of small molecule inhibitors by using a fluorescence based microfluidic mobility shift assay. CDK6/Cyclin D1 catalyzes the production of ADP from ATP that accompanies the phosphoryl transfer to the substrate peptide 5-FAM-Dyrktide The mobility shift assay electrophoretically separates the fluorescently labeled peptides (substrate and phosphorylated product) following the kinase reaction. Both substrate and product are measured and the ratio of these values is used to generate % conversion of substrate to product by the LabChip EZ Reader. Typical reaction solutions contained 2% DMSO (±inhibitor), 2% glycerol, 10 mM MgCl2, 1 mM DTT, 3.5 mM ATP, 0.005% Tween 20 (TW-20), 3 μM 5-FAM-Dyrktide, 4 nM activated CDK6/Cyclin D1 in 40 mM HEPES buffer at pH 7.5. […]\nFor all the CDK4 and CDK6 assays the Ki constant for compounds were calculated for each enzyme using the Morrison equation. Fractional activity was measured at different compound concentrations, [I] and the data fit to the Morrison equation where [E] is the enzyme concentration, [S] is the ATP concentration, and Kn^App is the apparent Km for ATP for each enzyme under each assay format. […]"}, "CDK4/Cyclin D1": {"target": "CDK4/Cyclin D1 (Homo sapiens (Human), UniProt P11802)", "sequence (P11802 whole entry)": "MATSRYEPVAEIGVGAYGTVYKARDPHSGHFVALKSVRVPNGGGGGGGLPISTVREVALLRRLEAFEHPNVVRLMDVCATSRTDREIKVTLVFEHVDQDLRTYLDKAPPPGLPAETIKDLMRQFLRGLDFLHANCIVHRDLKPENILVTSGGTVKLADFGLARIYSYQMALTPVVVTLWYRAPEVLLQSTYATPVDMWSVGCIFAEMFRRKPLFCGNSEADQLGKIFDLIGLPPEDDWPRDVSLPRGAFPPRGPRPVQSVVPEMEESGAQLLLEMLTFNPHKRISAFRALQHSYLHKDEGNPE", "sequence (P24385 whole entry partner)": "as the sequence (P24385 whole entry partner) above", "experiment": "CDK4/Cyclin D1 CHEF assay (Chelation-Enhanced Fluorescence), Ki by Morrison equation", "conditions": "geometric mean, read-out: CDK4/Cyclin D1 GMean Ki", "text": "(§1) In Vitro Purified Enzyme Assays to Determine Potency for CDKs\n(§2) CDK4/Cyclin D1 and CDK6/Cylcin D3 CHEF Assay\n(§3) The Chelation-Enhanced Fluorescence (CHEF) monitors the phosphorylation state in real time where the level of fluorescence is directly proportional to the amount of phosphorylated substrate. CHEF exploits a synthetic α-amino acid with a side chain bearing an 8-hydroxyquinoline derivative (sulfonamido-oxine, Sox) which, upon coordination to Mg(II), relays information on the phosphorylation state of a proximal serine, threonine or tyrosine residue in peptide-based kinase substrates. Phosphorylation of a specific peptide (Catalog # AQT0258) from AssayQuant Technologies results in an increase in fluorescence at the excitation and emission wavelengths of 360 nm Ex/485 nm Em.\n(§4) Examples along with DMSO (negative) and Palbociclib (positive) controls were added to 384-well plates at 100-fold their final concentrations followed by the addition of 10 nM CDK4/Cyclin D1 (LJIC-2007F1) or 10 nM CDK6/Cyclin D3 (LJIC-2009H2) for a 20 minute pre-incubation in assay buffer containing 40 mM HEPES, 1 mM Dithiothreito (DTT, 10 mM MgCl2, 1% Glycerol, 0.1% BSA. Enzyme reactions were initiated by the addition of AssayQuant Technologies peptide and ATP substrates (10 μM CHEF peptide (Catalog # AQT0258), 2 mM ATP) and allowed to proceed for 2 hours followed by fluorescence read of the reaction. Ki determinations were made from a plot of the fractional velocity as a function of inhibitor concentration fit to the Morrison equation with the enzyme concentration as a variable.\n(§5) For all the CDK4 and CDK6 assays the Ki constant for compounds were calculated for each enzyme using the Morrison equation. Fractional activity was measured at different compound concentrations, [I] and the data fit to the Morrison equation where [E] is the enzyme concentration, [S] is the ATP concentration, and Kn^App is the apparent Km for ATP for each enzyme under each assay format. With the Ki calculations dependent on the assay conditions for each assay format the resulting Ki becomes assay independent with a strong one to one correlation of Ki values for compounds tested in both assay formats.\n(§6) In Table 2, assay data are presented to two (2) significant figures as the geometric mean (Ki) based on the number of replicates listed (Number). A cell having NA means there was no data for that Example in the indicated assay."}, "CDK6/Cyclin D3": {"target": "CDK6/Cyclin D3 (Homo sapiens (Human), UniProt Q00534)", "sequence (Q00534 whole entry)": "as the sequence (Q00534 whole entry) above", "sequence (P30281 whole entry partner)": "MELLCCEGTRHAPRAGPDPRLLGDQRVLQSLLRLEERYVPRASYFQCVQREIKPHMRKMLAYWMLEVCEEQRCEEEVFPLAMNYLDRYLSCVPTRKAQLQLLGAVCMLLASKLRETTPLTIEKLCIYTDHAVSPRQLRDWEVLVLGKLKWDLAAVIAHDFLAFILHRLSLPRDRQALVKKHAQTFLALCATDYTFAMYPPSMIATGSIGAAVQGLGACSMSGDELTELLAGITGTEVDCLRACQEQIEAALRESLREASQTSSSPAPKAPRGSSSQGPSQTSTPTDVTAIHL", "experiment": "CDK6/Cyclin D3 CHEF assay (Chelation-Enhanced Fluorescence), Ki by Morrison equation", "conditions": "geometric mean, read-out: CDK6/Cyclin D3: GMean Ki", "text": "as §1, §2, §3, §4, §5, §6"}}, "note": "Like-named read-outs stand apart in the source and are kept apart here."}
{"smiles": "CC(=O)c1c(C)c2cnc(N[C@@H]3CCOC[C@H]3O)nc2n([C@@H]2CCC[C@]2(C)F)c1=O", "note": "(mixture of isomers) [Example 17, 6-Acetyl-8-[(1R,2S)-2-fluoro-2-methylcyclopentyl]-2-{[(3S,4R)-3-hydroxytetrahydro-2H-pyran-4-yl]amino}-5-methylpyrido[2,3-d]pyrimidin-7(8H)-one and 6-Acetyl-8-[(1S,2R)-2-fluoro-2-methylcyclopentyl]-2-{[(3S,4R)-3-hydroxytetrahydro-2H-pyran-4-yl]amino}-5-methylpyrido[2,3-d]pyrimidin-7(8H)-one]", "values": [{"measurement": "CDK6/Cyclin D3: GMean Ki (nM) (footnote c: CDK6/D1 Ki)", "setting": "CDK6/Cyclin D1", "result": "10.5^c nM"}]}
{"smiles": "CC(=O)c1c(C)c2cnc(N[C@@H]3CCOC[C@H]3O)nc2n([C@H]2CC[C@@H](O)CC2)c1=O", "note": "[Example 20, 6-acetyl-8-(cis-4-hydroxycyclohexyl)-2-{[(3S,4R)-3-hydroxytetrahydro-2H-pyran-4-yl]amino}-5-methylpyrido[2,3-d]pyrimidin-7(8H)-one]", "values": [{"measurement": "Ki", "setting": "CDK4/Cyclin D1; tested in CHEF Assay", "result": 54, "unit": "nM"}, {"measurement": "Ki", "setting": "CDK6/Cyclin D3; tested in CHEF Assay", "result": 58, "unit": "nM"}]}
{"smiles": "CC(=O)c1c(C)c2cnc(N[C@@H]3CCOC[C@H]3O)nc2n([C@H]2CCC[C@]2(C)F)c1=O", "note": "(single isomer, unassigned) [Example 22]", "values": [{"measurement": "Ki", "setting": "CDK6/Cyclin D1; read-out: CDK6/Cyclin D3: GMean Ki (nM) (footnote c: CDK6/D1 Ki)", "result": 2.8, "unit": "nM"}]}
{"smiles": "CC(=O)c1c(C)c2cnc(N[C@@H]3CCOC[C@H]3O)nc2n(C2CC3(C2)CN(CC(F)F)C3)c1=O", "note": "[Example 29, 6-acetyl-8-[2-(2,2-difluoroethyl)-2-azaspiro[3.3]heptan-6-yl]-2-{[(3S,4R)-3-hydroxytetrahydro-2H-pyran-4-yl]amino}-5-methylpyrido[2,3-d]pyrimidin-7(8H)-one]", "values": [{"measurement": "Ki", "setting": "CDK4/Cyclin D1; tested in CHEF Assay", "result": 1.9, "unit": "nM"}, {"measurement": "Ki", "setting": "CDK6/Cyclin D3; tested in CHEF Assay", "result": 4.9, "unit": "nM"}]}
{"smiles": "CC[C@H]1CCC[C@H]1n1c(=O)c(C(C)=O)c(C)c2cnc(N[C@@H]3CCOC[C@H]3O)nc21", "note": "[Example 10, 6-Acetyl-8-[(1R,2S)-2-ethylcyclopentyl]-2-{[(3S,4R)-3-hydroxytetrahydro-2H-pyran-4-yl]amino}-5-methylpyrido[2,3-d]pyrimidin-7(8H)-one]", "values": [{"measurement": "Ki", "setting": "CDK4/Cyclin D1; tested in CHEF Assay", "result": 2.7, "unit": "nM"}, {"measurement": "Ki", "setting": "CDK6/Cyclin D3; tested in CHEF Assay", "result": 5, "unit": "nM"}]}
{"smiles": "CC(=O)c1c(C)c2cnc(N[C@@H]3CCOC[C@H]3O)nc2n([C@@H]2CC[C@@H]3C[C@@H]32)c1=O", "note": "(mixture of isomers) [Example 13, 6-Acetyl-8-[(1S,2R,5R)-bicyclo[3.1.0]hexan-2-yl]-2-{[(3S,4R)-3-hydroxytetrahydro-2H-pyran-4-yl]amino}-5-methylpyrido[2,3-d]pyrimidin-7(8H)-one and 6-Acetyl-8-[(1R,2S,5S)-bicyclo[3.1.0]hexan-2-yl]-2-{[(3S,4R)-3-hydroxytetrahydro-2H-pyran-4-yl]amino}-5-methylpyrido[2,3-d]pyrimidin-7(8H)-one]", "values": [{"measurement": "Ki", "setting": "CDK4/Cyclin D1; tested in CHEF Assay", "result": 2.1, "unit": "nM"}, {"measurement": "Ki", "setting": "CDK6/Cyclin D3; tested in CHEF Assay", "result": 3.3, "unit": "nM"}]}
{"smiles": "CC(=O)c1c(C)c2cnc(N[C@@H]3CCOC[C@H]3O)nc2n([C@H]2CC[C@H](N)CC2)c1=O", "note": "[Example 24]", "values": [{"measurement": "Ki", "setting": "CDK4/Cyclin D1; tested in CHEF Assay", "result": 13, "unit": "nM"}, {"measurement": "Ki", "setting": "CDK6/Cyclin D3; tested in CHEF Assay", "result": 24, "unit": "nM"}]}
{"smiles": "CC(=O)c1c(C)c2cnc(N[C@@H]3CCOC[C@H]3O)cc2n(C2CCC(O)C2)c1=O", "note": "(single isomer, unassigned) [Example 14]", "values": [{"measurement": "Ki", "setting": "CDK4/Cyclin D1; tested in CHEF Assay", "result": 0.9, "unit": "nM"}, {"measurement": "Ki", "setting": "CDK6/Cyclin D3; tested in CHEF Assay", "result": 2.6, "unit": "nM"}]}
{"smiles": "CC(=O)c1c(C)c2cnc(N[C@@H]3CCOC[C@H]3O)nc2n(C2CCCC2)c1=O", "note": "[Example 2, 6-acetyl-8-cyclopentyl-2-{[(3S,4R)-3-hydroxytetrahydro-2H-pyran-4-yl]amino}-5-methylpyrido[2,3-d]pyrimidin-7(8H)-one]", "values": [{"measurement": "Ki", "setting": "CDK4/Cyclin D1; tested in both CHEF and MSA", "result": 0.8, "unit": "nM"}, {"measurement": "Ki", "setting": "CDK6/Cyclin D3; tested in both CHEF and MSA", "result": 1.2, "unit": "nM"}]}
{"smiles": "CC(=O)c1c(C)c2cnc(N[C@@H]3CCOC[C@H]3O)nc2n([C@H]2C[C@H](O)C2)c1=O", "note": "[Example 21, 6-acetyl-8-(trans-3-hydroxycyclobutyl)-2-{[(3S,4R)-3-hydroxytetrahydro-2H-pyran-4-yl]amino}-5-methylpyrido[2,3-d]pyrimidin-7(8H)-one]", "values": [{"measurement": "Ki", "setting": "CDK4/Cyclin D1; tested in CHEF Assay", "result": 13, "unit": "nM"}, {"measurement": "Ki", "setting": "CDK6/Cyclin D3; tested in CHEF Assay", "result": 13, "unit": "nM"}]}
{"smiles": "CC(=O)c1c(C)c2cnc(N[C@@H]3CCOC[C@H]3O)cc2n(C2CCC(O)C2)c1=O", "note": "(single isomer, unassigned) [Example 15]", "values": [{"measurement": "Ki", "setting": "CDK4/Cyclin D1; tested in CHEF Assay", "result": 3.8, "unit": "nM"}, {"measurement": "Ki", "setting": "CDK6/Cyclin D3; tested in CHEF Assay", "result": 7.7, "unit": "nM"}]}
